Assay results published in US8759535B2, “Substituted fused imidazole derivatives, pharmaceutical compositions, and methods of use thereof” (High Point Pharmaceuticals, LLC, priority 2010, dated 2014).
Structures can show the parent of a compound that is named as a salt.

System: HMOX1
Assay: HMOX1 Protein Assay (immunostaining of HO-1 in NHLF cells, GE InCell 1000)
Type: cell-based
Conditions: Homo sapiens, fold change above DMSO treated cells, 3 μM compound (asterisk), 16 h
Method in brief: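 NHLF cells seeded overnight in FGM-2, then exposed to compound or DMSO vehicle for 16 h, fixed, and immunostained for HO-1 with Hoechst nuclear counterstain; imaged on InCell 1000. Values are fold change over DMSO-treated cells, generally at 5 μM (0.8% DMSO), with asterisked entries at 3 μM.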

Row | Structure (SMILES) | fold induction at 3 µM
1 | CN1CCN(CCNC(=O)c2ccc3c(c2)nc(Nc2nc4ccc(OC(F)(F)F)cc4s2)n3C)CC1 [Example 337, 1-Methyl-2-(6-trifluoromethoxy-benzothiazol-2-ylamino)-1H-benzoimidazole-5-carboxylic acid [2-(4-methyl-piperazin-1-yl)-ethyl]-amide] | 12.7
2 | Cn1c(Nc2nc3ccc(C(F)(F)F)cc3s2)nc2cc(C(=O)NCC(=O)N3CCC[C@H](O)C3)ccc21 [Example 434, 1-Methyl-2-(6-trifluoromethyl-benzothiazol-2-ylamino)-1H-benzoimidazole-5-carboxylic acid [2-((S)-3-hydroxy-piperidin-1-yl)-2-oxo-ethyl]-amide] | 34.6
3 | Cn1c(Nc2nc3ccc(C(F)(F)F)cc3s2)nc2cc(C(=O)NC[C@H]3CC[C@H](O)CC3)ccc21 [Example 234, 1-Methyl-2-(6-trifluoromethyl-benzothiazol-2-ylamino)-1H-benzoimidazole-5-carboxylic acid (trans-4-hydroxy-cyclohexylmethyl)-amide] | 30.9
4 | CNC(=O)CNC(=O)c1ccc2c(c1)nc(Nc1nc3ccc(Cl)cc3s1)n2C [Example 380, 2-(6-Chloro-benzothiazol-2-ylamino)-1-methyl-1H-benzoimidazole-5-carboxylic acid methylcarbamoylmethyl-amide] | 30
5 | CCN(CC)CCCNC(=O)c1ccc2c(c1)nc(Nc1nc3ccc(OC(F)(F)F)cc3s1)n2C [Example 351, 1-Methyl-2-(6-trifluoromethoxy-benzothiazol-2-ylamino)-1H-benzoimidazole-5-carboxylic acid (3-diethylamino-propyl)-amide] | 25

Same assay, conditions: Homo sapiens, fold change above DMSO treated cells, 5 μM compound, 16 h

Row | Structure (SMILES) | fold induction at 5 µM
6 | C[C@@H](O)CN1CCC(NC(=O)c2ccc3c(c2)nc(Nc2nc4ccc(OC(F)(F)F)cc4s2)n3C)C1 (stereo partly drawn) [Example 294, 1-Methyl-2-(6-trifluoromethoxy-benzothiazol-2-ylamino)-1H-benzoimidazole-5-carboxylic acid [1-((R)-2-hydroxy-propyl)-pyrrolidin-3-yl]-amide] | 29.4
7 | CCn1c(Nc2nc3ccc(OC(F)(F)F)cc3s2)nc2cc(C(=O)NCC(=O)N3CCN(C)CC3)ccc21 [Example 190, 1-Ethyl-2-(6-trifluoromethoxy-benzothiazol-2-ylamino)-1H-benzoimidazole-5-carboxylic acid [2-(4-methyl-piperazin-1-yl)-2-oxo-ethyl]-amide] | 23.4
8 | CNC(=O)c1ccc2c(c1)nc(Nc1nc3ccc(C)cc3s1)n2C [Example 128, 2-(6-Methyl-benzothiazol-2-ylamino)-1-methyl-1H-benzimidazole-5-carboxylic acid methylamide] | 32.7
9 | CC(O)CNC(=O)c1cc2nc(Nc3nc4ccc(OC(F)(F)F)cc4s3)n(C)c2cc1F (stereo not drawn) [Example 60, 6-Fluoro-1-methyl-2-(6-trifluoromethoxy-benzothiazol-2-ylamino)-1H-benzoimidazole-5-carboxylic acid (2-hydroxy-propyl)-amide] | 39.8
10 | CN(C)[C@@H]1CCN(C(=O)CNC(=O)c2ccc3c(c2)nc(Nc2nc4ccc(OC(F)(F)F)cc4s2)n3C)C1 [Example 415, 1-Methyl-2-(6-trifluoromethoxy-benzothiazol-2-ylamino)-1H-benzoimidazole-5-carboxylic acid [2-((R)-3-dimethylamino-pyrrolidin-1-yl)-2-oxo-ethyl]-amide] | 74.8
11 | CN(C)C1CCN(C(=O)CNC(=O)c2ccc3c(c2)nc(Nc2nc4ccc(OC(F)(F)F)cc4s2)n3C)CC1 [Example 455, 1-Methyl-2-(6-trifluoromethoxy-benzothiazol-2-ylamino)-1H-benzoimidazole-5-carboxylic acid [2-(4-dimethylamino-piperidin-1-yl)-2-oxo-ethyl]-amide] | 80.4
12 | COCCn1c(Nc2nc3ccc(Cl)cc3s2)nc2cc(C(=O)NCC(=O)N3CC[C@@H](O)C3)ccc21 [Example 404, 2-(6-Chloro-benzothiazol-2-ylamino)-1-(2-methoxy-ethyl)-1H-benzoimidazole-5-carboxylic acid [2-((R)-3-hydroxy-pyrrolidin-1-yl)-2-oxo-ethyl]-amide] | 26.1
13 | CCn1c(Nc2nc3ccc(Cl)cc3s2)nc2cc(C(=O)NCC(C)(C)OC)ccc21 [Example 178, 2-(6-Chloro-benzothiazol-2-ylamino)-1-ethyl-1H-benzoimidazole-5-carboxylic acid (2-methoxy-2-methyl-propyl)-amide] | 25.7
14 | CC(O)CNC(=O)c1ccc2c(c1)nc(Nc1nc3ccc(OC(F)(F)F)cc3s1)n2C (stereo not drawn) [Example 21, 1-Methyl-2-(6-trifluoromethoxy-benzothiazol-2-ylamino)-1H-benzoimidazole-5-carboxylic acid (2-hydroxy-propyl)-amide] | 19.6
15 | CNCCNC(=O)c1ccc2c(c1)nc(Nc1nc3ccc(OC(F)(F)F)cc3s1)n2C [Example 105, 1-Methyl-2-(6-trifluoromethoxy-benzothiazol-2-ylamino)-1H-benzoimidazole-5-carboxylic acid (2-methylamino-ethyl)-amide] | 17.5
16 | CN(C)C(=O)CNC(=O)c1cc2nc(Nc3nc4ccc(OC(F)(F)F)cc4s3)n(C)c2cc1F [Example 58, 6-Fluoro-1-methyl-2-(6-trifluoromethoxy-benzothiazol-2-ylamino)-1H-benzoimidazole-5-carboxylic acid dimethylcarbamoylmethyl-amide] | 32.8
17 | Cn1c(Nc2nc3ccc(Cl)cc3s2)nc2cc(C(=O)NCC(=O)N3CCNCC3)ccc21 [Example 425, 2-(6-Chloro-benzothiazol-2-ylamino)-1-methyl-1H-benzoimidazole-5-carboxylic acid (2-oxo-2-piperazin-1-yl-ethyl)-amide hydrochloride] | 20.3
18 | CCS(=O)(=O)CCNC(=O)c1ccc2c(c1)nc(Nc1nc3ccc(OC(F)(F)F)cc3s1)n2C [Example 109, 1-Methyl-2-(6-trifluoromethoxy-benzothiazol-2-ylamino)-1H-benzimidazole-5-carboxylic acid (2-ethanesulfonyl-ethyl)-amide] | 20.9
19 | Cn1c(Nc2nc3ccc(Cl)cc3s2)nc2cc(C(=O)NCC(=O)NC3CCOCC3)ccc21 [Example 385, 2-(6-Chloro-benzothiazol-2-ylamino)-1-methyl-1H-benzoimidazole-5-carboxylic acid [(tetrahydro-pyran-4-ylcarbamoyl)-methyl]-amide] | 24.5
20 | Cn1c(Nc2nc3ccc(Cl)cc3s2)nc2cc(C(=O)NCC3CCN(CCO)CC3)ccc21 [Example 303, 2-(6-Chloro-benzothiazol-2-ylamino)-1-methyl-1H-benzoimidazole-5-carboxylic acid [1-(2-hydroxy-ethyl)-piperidin-4-ylmethyl]-amide] | 25.6
21 | Cn1c(Nc2nc3ccc(OC(F)(F)F)cc3s2)nc2cc(C(=O)NCC(=O)N3CCN(C(=O)OC(C)(C)C)CC3)ccc21 [Example 142, 4-(2-{[1-Methyl-2-(6-trifluoromethoxy-benzothiazol-2-ylamino)-1H-benzimidazole-5-carbonyl]-amino}-acetyl)-piperazine-1-carboxylic acid tert-butyl ester] | 15.2
